Measured values published in ChEMBL document CHEMBL4177615 (Bioorg Med Chem, 2017).

Experiments:
[1] = biological target: Voltage-gated inwardly rectifying potassium channel KCNH2 (Homo sapiens, UniProt Q12809); assay: Inhibition of human ERG expressed in Xenopus laevis oocytes by two-electrode voltage clamp assay; type: cell-based
[2] = tested on: Plasmodium falciparum; assay: Antimalarial activity against Plasmodium falciparum 3D7 infected in ARh+ human erythrocytes after 42 to 48 hrs by Picogreen staining-based 96 well microplate assay; type: functional, organism-based
[3] = tested on: Plasmodium falciparum; assay: Antimalarial activity against Plasmodium falciparum 3D7 infected in ARh+ human erythrocytes at 10 uM after 42 to 48 hrs by Picogreen staining-based 96 well microplate assay; type: functional; conditions: read-out: GI
[4] = tested on: Plasmodium falciparum; assay: Antimalarial activity against Plasmodium falciparum 3D7 infected in ARh+ human erythrocytes at 0.1 uM after 42 to 48 hrs by Picogreen staining-based 96 well microplate assay; type: functional; conditions: read-out: GI
[5] = tested on: Plasmodium falciparum; assay: Antimalarial activity against Plasmodium falciparum 3D7 infected in ARh+ human erythrocytes at 0.01 uM after 42 to 48 hrs by Picogreen staining-based 96 well microplate assay; type: functional; conditions: read-out: GI
[6] = tested on: Plasmodium falciparum; assay: Antimalarial activity against Plasmodium falciparum 3D7 infected in ARh+ human erythrocytes at 1 uM after 42 to 48 hrs by Picogreen staining-based 96 well microplate assay; type: functional; conditions: read-out: GI
[7] = tested on: hERG (KCNH2); assay: Selectivity index, ratio of IC50 for inhibition of human ERG expressed in Xenopus laevis oocytes to IC50 for Plasmodium falciparum 3D7; type: toxicity, cell-based; conditions: read-out: Ratio IC50
[8] = tested on: Plasmodium falciparum; assay: Antiplasmodial activity against Plasmodium falciparum K1 at 0.002 to 100 ug/ml by serial drug dilution assay; type: functional, organism-based

Voltage-gated inwardly rectifying potassium channel KCNH2, sequence (Q12809 whole entry): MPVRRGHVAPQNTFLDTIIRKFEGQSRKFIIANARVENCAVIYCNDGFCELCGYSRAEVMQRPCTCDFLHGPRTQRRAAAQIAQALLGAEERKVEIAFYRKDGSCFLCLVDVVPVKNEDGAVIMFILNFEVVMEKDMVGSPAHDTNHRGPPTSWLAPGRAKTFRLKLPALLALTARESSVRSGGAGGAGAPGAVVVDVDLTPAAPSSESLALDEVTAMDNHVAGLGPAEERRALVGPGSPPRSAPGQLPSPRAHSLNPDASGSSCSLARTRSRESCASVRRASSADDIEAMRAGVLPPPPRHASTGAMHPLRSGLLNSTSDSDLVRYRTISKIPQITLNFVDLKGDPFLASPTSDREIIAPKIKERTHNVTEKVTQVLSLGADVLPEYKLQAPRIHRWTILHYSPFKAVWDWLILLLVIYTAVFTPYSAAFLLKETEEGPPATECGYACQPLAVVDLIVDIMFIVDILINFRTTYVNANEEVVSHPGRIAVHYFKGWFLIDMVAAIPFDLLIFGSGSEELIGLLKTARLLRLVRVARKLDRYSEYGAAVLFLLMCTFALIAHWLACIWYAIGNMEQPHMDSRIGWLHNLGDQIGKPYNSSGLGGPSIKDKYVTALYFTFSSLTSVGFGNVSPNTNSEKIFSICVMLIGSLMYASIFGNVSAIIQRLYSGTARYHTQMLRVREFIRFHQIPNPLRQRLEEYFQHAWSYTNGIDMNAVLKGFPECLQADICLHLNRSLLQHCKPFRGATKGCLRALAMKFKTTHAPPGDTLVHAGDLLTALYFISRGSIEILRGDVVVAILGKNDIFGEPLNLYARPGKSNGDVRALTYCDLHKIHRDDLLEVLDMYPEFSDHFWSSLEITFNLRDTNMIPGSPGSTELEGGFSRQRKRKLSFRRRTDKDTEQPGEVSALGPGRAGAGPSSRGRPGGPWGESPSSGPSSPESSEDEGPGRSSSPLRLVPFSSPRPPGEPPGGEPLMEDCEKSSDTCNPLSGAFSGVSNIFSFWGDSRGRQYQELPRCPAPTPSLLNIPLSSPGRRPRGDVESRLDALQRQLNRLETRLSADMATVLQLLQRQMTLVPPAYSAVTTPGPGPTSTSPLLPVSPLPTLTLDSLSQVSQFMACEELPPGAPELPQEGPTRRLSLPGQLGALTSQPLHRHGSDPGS

For `COc1ccc(CCN2CCC(Nc3nc4ccccc4n3CC3CCCCC3)CC2)cc1`, the IC50 [1] was 3.27 nM, the IC50 [2] was 39.4 to 44 nM and the inhibition of growth at 10 µM [3] was 100%. For the same molecule, the inhibition of growth at 0.1 µM [4] was 80%, the inhibition of growth at 0.01 µM [5] was 1% and the inhibition of growth at 1 µM [6] was 100%. It also gave a selectivity ratio [7] of 0.1.
In the case of `CCCCCCCCn1c(NC2CCN(CCc3ccc(OC)cc3)CC2)nc2ccccc21`, the IC50 [1] is reported as 3270 nM, the IC50 [2] is reported as 29 to 29.6 nM and the inhibition of growth at 10 µM [3] is reported as 100%. It also gave an inhibition of growth at 0.1 µM [4] of 93%, an inhibition of growth at 0.01 µM [5] of 4% and an inhibition of growth at 1 µM [6] of 96%. The selectivity ratio [7] was 110.
Molecule `OCCN1CCN(CCCN2c3ccccc3Sc3ccc(C(F)(F)F)cc32)CC1` [FLUPHENAZINE] has an IC50 [8] of 500 nM.
`CCCCCCCCCCn1c(NC2CCN(CCc3ccc(OC)cc3)CC2)nc2ccccc21` gave an IC50 [1] of 2070 nM, an IC50 [2] of 50 to 113 nM and an inhibition of growth at 10 µM [3] of 100%. The inhibition of growth at 0.1 µM [4] was 77%, the inhibition of growth at 0.01 µM [5] was 0% and the inhibition of growth at 1 µM [6] was 100%. The selectivity ratio [7] was 18.4.
Molecule `COc1ccc(CCN2CCC(Nc3nc4ccccc4n3Cc3ccc(F)cc3F)CC2)cc1` has an IC50 [1] of 178 nM, an IC50 [2] of 85 to 102 nM and an inhibition of growth at 10 µM [3] of 80%. It also gave an inhibition of growth at 0.1 µM [4] of 55%, an inhibition of growth at 0.01 µM [5] of 0% and an inhibition of growth at 1 µM [6] of 100%. For the same molecule, the selectivity ratio [7] was 1.7.
In the case of `CN(C)CCC=C1c2ccccc2CCc2ccccc21` [AMITRIPTYLINE], the IC50 [8] is reported as 500 nM.
With `CN(C)CCCN1c2ccccc2Sc2ccccc21` [PROMAZINE] the IC50 [8] was 500 nM.
Molecule `CNCCC=C1c2ccccc2CCc2ccccc21` [NORTRIPTYLINE] has an IC50 [8] of 500 nM.
`COc1ccc(CCN2CCC(Nc3nc4ccccc4[nH]3)CC2)cc1` was tested, and the IC50 [1] was 164 nM, the IC50 [2] was 78 to 79.7 nM and the inhibition of growth at 10 µM [3] was 100%. The inhibition of growth at 0.1 µM [4] was 52%, the inhibition of growth at 0.01 µM [5] was 6% and the inhibition of growth at 1 µM [6] was 100%. It also gave a selectivity ratio [7] of 2.1.
`COc1ccc(CCN2CCC(Nc3nc4ccccc4n3Cc3ccccc3)CC2)cc1` showed an IC50 [2] of 344 nM, an inhibition of growth at 10 µM [3] of 100% and an inhibition of growth at 0.1 µM [4] of 14%. For the same molecule, the inhibition of growth at 0.01 µM [5] was 0% and the inhibition of growth at 1 µM [6] was 82%.
With `COc1ccc(OC)c(S(=O)(=O)N2CCC(Nc3nc4ccccc4n3Cc3ccc(F)cc3)CC2)c1` the IC50 [2] was 6850 nM, the inhibition of growth at 10 µM [3] was 61% and the inhibition of growth at 0.1 µM [4] was 4%. It also gave an inhibition of growth at 0.01 µM [5] of 5% and an inhibition of growth at 1 µM [6] of 8%.
`COc1ccc(CCN2CCC(Nc3nc4ccccc4n3Cc3ccc(F)cc3)C2)cc1` (stereo unspecified) showed an IC50 [2] of 5320 nM, an inhibition of growth at 10 µM [3] of 67% and an inhibition of growth at 0.1 µM [4] of 0%. The inhibition of growth at 0.01 µM [5] was 0% and the inhibition of growth at 1 µM [6] was 14%.
Molecule `O=C(c1ccc(F)cc1)N1CCC(Nc2nc3ccccc3n2Cc2ccc(F)cc2)CC1` has an IC50 [2] of 10000 nM, an inhibition of growth at 10 µM [3] of 51% and an inhibition of growth at 0.1 µM [4] of 0%. It also gave an inhibition of growth at 0.01 µM [5] of 0% and an inhibition of growth at 1 µM [6] of 6%.
Molecule `COc1ccc(CCN2CCN(c3nc4ccccc4n3Cc3ccc(F)cc3)CC2)cc1` has an IC50 [2] of 6530 nM, an inhibition of growth at 10 µM [3] of 57% and an inhibition of growth at 0.1 µM [4] of 0%. The inhibition of growth at 0.01 µM [5] was 0% and the inhibition of growth at 1 µM [6] was 21%.
For `COc1ccc(CCN2CCC(Nc3nc4ccccc4n3CCC(C)C)CC2)cc1`, the IC50 [1] was 212 nM, the IC50 [2] was 28 to 92 nM and the inhibition of growth at 10 µM [3] was 97%. For the same molecule, the inhibition of growth at 0.1 µM [4] was 54%, the inhibition of growth at 0.01 µM [5] was 0% and the inhibition of growth at 1 µM [6] was 100%. The selectivity ratio [7] was 7.6.
